Results reported in ChEMBL document CHEMBL5537181 (J Med Chem, 2024).
Calls of active or inactive are those of the source.

Key:
Assay type in all cases: functional, organism-based
Rattus norvegicus [1] = experiment: Antinociceptive activity in Chronic constriction injury rat model assessed as reduction in pain at 5 mg/kg,IM administration and measured after 12 hrs
Rattus norvegicus [2] = experiment: Analgesic activity in Chronic constriction injury rat model assessed as increase in paw withdrawal latency at 5 mg/kg,IM administration and measured for 0.5 to 48 hrs; conditions: time 0.5-48 hrs
Rattus norvegicus [3] = experiment: Antinociceptive activity in Chronic constriction injury rat model assessed as reduction in pain at 5 mg/kg,IM administration and measured after 2 hrs
Rattus norvegicus [4] = experiment: Analgesic activity in Chronic constriction injury rat model assessed as increase in paw withdrawal threshold at 5 mg/kg,IM administration and measured for 0.5 to 48 hrs; conditions: time 0.5-48 hrs
Rattus norvegicus [5] = experiment: Analgesic activity in Chronic constriction injury rat model assessed as increase in paw withdrawal latency at 30 mg/kg,po administration and measured for 0.5 to 48 hrs; conditions: time 0.5-48 hrs
Rattus norvegicus [6] = experiment: Analgesic activity in Chronic constriction injury rat model assessed as increase in paw withdrawal threshold at 30 mg/kg,po administration and measured for 0.5 to 48 hrs; conditions: time 0.5-48 hrs

Measured: Activity

CN1CC[C@]23c4c5ccc(O)c4O[C@H]2[C@@H](O)C=C[C@H]3[C@H]1C5
active: Rattus norvegicus [1] | Rattus norvegicus [2] | Rattus norvegicus [3] | Rattus norvegicus [4]

CC(C)C[C@H](CN)CC(=O)O
active: Rattus norvegicus [5] | Rattus norvegicus [6]
